Assay results as given in patent US6605604B1, “Carboxylic and hydroxamic acid compounds inhibiting metalloproteases, method for preparing same and pharmaceutical compositions containing them” (Les Laboratoires Servier, priority 1998, dated 2003).

Columns and labels:
[1] = test system: B16F10 melanoma; conditions: BDF1 mice, B16F10 cells i.v. on day 1; compound i.v. at 100 mg/kg from day 0 to day 3; metastases counted on day 11
Experimental: Inhibition of the Formation of Metastases in the Mouse
The anti-tumour activity of the compounds of the invention was studied in the model of B16F10 melanoma grafted by the i.v. route. […] The parameter measured is thus the number of pulmonary metastases.
B16F1O tumour cells are injected by the i.v. route into BDF1 mice on day 1 (1 10^5 cells per mouse). The compounds are administered by the i.v. route at 100 mg/kg from day 0 to day 3 (7 animals per experimental group). On day 11, the animals are sacrificed and the pulmonary metastases are counted. The results are expressed as % inhibition compared with the control animals.

[2] = test system: ovarian cancers; conditions: Becket et al., DDT 1996, 1, 16; cited from earlier work
[3] = test system: rabbit cartilage collagen matrix degradation induced by IL-1β; conditions: read-out: IC50, collagen degradation (OH-proline release), IL-1β 10 ng/ml and plasmin 0.1 U/ml, 2 days
Experimental: The compounds of the invention were studied using a rabbit cartilage collagen matrix degradation model with degradation being induced by IL-1β. The tissue is placed in contact with IL -1β (10 ng/ml) and plasmin (0.1 U/ml) for 2 days. The fraction of OH-proline salted out by the tissue is evaluated by colorimetric measurement (GRANT R. A. Estimation of OH-proline by the autoanalyzer, J. Clin. Path. 1964, 17 685). The compounds of the invention were studied after the addition of various concentrations to the culture medium during the two days of the test.

O=C(O)[C@H]1[C@H](Cn2nnc3ccccc3c2=O)CC[C@@H]1Sc1ccc(-c2ccc(Cl)cc2)cc1 (mixture of isomers) [Example 49, (1R,2S,5R)- and (1S,2R,5S)-2-[(4′-chloro-4-biphenyl)sulphanyl]-5-[(4-oxo-3,4-dihydro-1,2,3-benzotriazin-3-yl)methyl]-1-cyclopentanecarboxylic acid]
inhibition of the formation of pulmonary metastases, % inhibition compared with the control animals [1]: 73%

CNC(=O)[C@H](Cc1ccccc1)NC(=O)[C@H](CC(C)C)[C@H](CSc1cccs1)C(=O)NO [BB94]
anti-tumour activity in clinical use [2]: active in ovarian cancers

O=C(NO)C(CCn1nnc2ccccc2c1=O)CSCCc1ccc(-c2ccc(Cl)cc2)cc1 (stereo not shown) [Example 93, 2-{[2-(4′-Chloro-4-biphenyl)ethyl]sulphanylmethyl}-N-hydroxy-4-(4-oxo-3,4-dihydro-1,2,3-benzotriazin-3-yl)butyramide]
inhibition of the formation of pulmonary metastases, % inhibition compared with the control animals [1]: 75%
IC50 [3]: 1900 nM
